30 compounds from US9732094B2, “Arylquinazolines” (Merck Patent GmbH, priority 2013, dated 2017) can be followed below.

The target in assay [1] is DNA-PK (Homo sapiens (Human), UniProt P78527). Put plainly: DNA-PK assay (biochemical), flashplate 33P-ATP kinase assay. The procedure: A) DNA-PK Assay (Biochemical)
The kinase assay was carried out in streptavidin-coated […] microtitre flashplates. […] The reaction was stopped using 50 μl/well of 200 mM EDTA. After incubation for a further 30 min at room temperature, the liquid was removed. Each well was washed three times with 100 μl of 0.9% saline solution. A nonspecific reaction (blank value) was determined using 10 μM of an innate kinase inhibitor. The radioactivity measurement was carried out using a TopCount. IC50 values were calculated in RS1.

Assay [2] deals with DNA-PK phosphorylation at serine 2056 (Homo sapiens (Human), UniProt P78527). The experiment in a line: DNA-PK phosphorylation at serine 2056 (cellular), bleomycin-treated HCT116 cells, ELISA. To be noted: read-out: IC50 pDNA-PK. The class given is cell-based. On the procedure:
HCT116 cells were cultivated at 37° C. and 10% CO2 in MEM alpha medium with 10% of foetal calf serum and 2 mM glutamine. The cells were detached from the base of the culture vessels with the aid of trypsin/EDTA, centrifuged off in centrifuge tubes, taken up in fresh medium, and the cell density was determined. 100,000 cells were sown in 1 ml of culture medium per cavity of a 24-well cell culture plate and cultivated overnight. Next day, 10 μM bleomycin (DNA intercalator and inductor of DNA double-strand breaks) and test substances in fresh culture medium were added to the cells, and these were cultivated for a further six hours. […] The 96-well ELISA plates were subsequently treated with a detection antibody (Abcam ab79444: total DNA-PK) and a streptavidin-HRP conjugate. The development of the enzymatic reaction was carried out with the aid of a chemiluminescent reagent, the chemiluminescence was measured with the aid of a Mithras LB940. The signals with the phospho-DNA-PK-specific antibody were standardised to the signal with the antibody against the total protein DNA-PKc. […] The DMSO control was used as blank.

Where [3] appears, read: cellular DNA-PK phosphorylation at serine 2056, HCT116.
Setting [4] is: cellular, HCT116 cells, 10 μM bleomycin, six hours.

Where two headings read alike, the source gives them in different places. A value given as a limit tells only on which side of the number the result lay.

In assay [1] (Table 5), `COC(c1ccc(F)c(-c2ncnc3cc(N4CCOCC4)ccc23)c1)c1nccs1` (stereo not shown) [Example 175, 4-[2-Fluoro-5-(methoxy-thiazol-2-ylmethyl)phenyl]-7-morpholin-4-yl-quinazoline] yielded a half-inhibitory concentration (IC50) of more than 30 nM.
In the case of `COc1nccnc1C(O)c1cc(-c2ncnc3cc(N4CCOCC4)cc(F)c23)c(F)cc1Cl` (stereo not shown) [Example 266, [2-Chloro-4-fluoro-5-(5-fluoro-7-morpholin-4-yl-quinazolin-4-yl)-phenyl]-(3-methoxy-pyrazin-2-yl)-methanol], the IC50 in assay [2] (setting [3]) was less than 500 nM.
Regarding `OC(c1ccc(-c2ncnc3cc(N4CCOCC4)ccc23)s1)c1nccs1` (stereo not shown) [Example 160, [5-(7-Morpholin-4-ylquinazolin-4-yl)-thiophen-2-yl]-thiazol-2-yl-methanol], the IC50 in assay [1] (Table 5) is more than 30 nM.
Same read-out and setting: under `OC(c1csc(-c2ncnc3cc(N4CCOCC4)ccc23)c1)c1nccs1` (stereo not shown) [Example 164, [5-(7-Morpholin-4-ylquinazolin-4-yl)-thiophen-3-yl]-thiazol-2-yl-methanol] stands more than 30 nM.
With `OC(c1cccc(-c2ncnc3cc(N4CCOCC4)sc23)c1)c1nccs1` (stereo not shown) [Example 182, [3-(6-Morpholin-4-ylthieno[3,2-d}-pyrimidin-4-yl)-phenyl]thiazol-2-yl-methanol], the IC50 in assay [1] (Table 5) is 7 to 30 nM; in assay [2] (Table 5, HCT116 cells), 5000 to 10000 nM.
Regarding `Cn1cnc2ncnc(C(O)c3cc(-c4ncnc5cc(N6CCOCC6)ccc45)c(F)cc3F)c21` (stereo not shown) [Example 386, [2,4-Difluoro-5-(7-morpholin-4-yl-quinazolin-4-yl)-phenyl]-(7-methyl-7H-purin-6-yl)-methanol], the results for the IC50 in assay [1] (biochemical DNA-PK assay) and in assay [2] (setting [3]) were 3 to 7 nM and 5000 to 10000 nM, respectively.
Take `OC(c1ccc(F)c(-c2ncnc3cc(N4CCOCC4)ccc23)c1)c1nccnc1I` (stereo not shown) [Example 462, [4-Fluoro-3-(7-morpholin-4-yl-quinazolin-4-yl)-phenyl]-(3-iodo-pyrazin-2-yl)-methanol]: the half-inhibitory concentration (IC50) in assay [1] (biochemical DNA-PK assay) is less than 3 nM; in assay [2] (setting [3]), less than 500 nM.
For `OC(c1ccc(F)c(-c2ncnc3cc(N4CCOCC4)ccc23)c1)c1nccs1` (stereo not shown) [Example 213, [4-Fluoro-3-(7-morpholin-4-yl-quinazolin-4-yl)-phenyl]thiazol-2-ylmethanol], the IC50 in assay [1] (enzymatic, 5 μM ATP) was less than 3 nM; in assay [2] (setting [4]) it was 5000 to 10000 nM.
As to `Cc1nccnc1C(O)c1cc(-c2ncnc3cc(N4CCOCC4)ccc23)c(F)cc1F` (stereo not shown) [Example 85], the half-inhibitory concentration (IC50) in assay [1] (enzymatic, 5 μM ATP) is less than 3 nM; in assay [2] (setting [4]), 500 to 5000 nM.
As for `OC(c1ccc(F)c(-c2ncnc3cc(N4CCOCC4)sc23)c1)c1nccs1` (stereo not shown) [Example 146, [4-fluoro-3-(6-morpholin-4-ylthieno[3,2-d]pyrimidin-4-yl)phenyl]thiazol-2-ylmethanol], the half-inhibitory concentration (IC50) in assay [2] (Table 5, HCT116 cells) lay within 500 to 5000 nM.
Regarding `OC(c1cc(-c2ncnc3cc(N4CCOCC4)ccc23)c(F)cc1F)c1ncnc2ccoc12` (stereo not shown) [Example 445, [2,4-Difluoro-5-(7-morpholin-4-yl-quinazolin-4-yl)-phenyl]furo[3,2-d}-pyrimidin-4-yl-methanol], the IC50 in assay [1] (biochemical DNA-PK assay) was 3 to 7 nM; in assay [2] (setting [3]), less than 500 nM.
In the case of `c1nc(N2CCCCC2)c2scc(N3CCOCC3)c2n1` [Example 174, 7-Morpholin-4-yl-4-piperidin-1-yl-thieno[3,2-d}-pyrimidine], the IC50 in assay [1] (Table 5) was in the range of 7 to 30 nM; in assay [2] (Table 5, HCT116 cells), 10000 to 30000 nM.
Regarding `COc1nccnc1C(O)c1cc(-c2ncnc3cc(N4CCOCC4)cc(F)c23)c(F)cc1Cl` (stereo not shown) [Example 250, [2-Chloro-4-fluoro-5-(5-fluoro-7-morpholin-4-yl-quinazolin-4-yl)-phenyl]-(3-methoxy-pyrazin-2-yl)-methanol], the IC50 in assay [2] (setting [3]) is less than 500 nM.
Compound `OC(c1cncc(-c2ncnc3cc(N4CCOCC4)ccc23)c1)c1nccs1` (stereo not shown) [Example 184, [5-(7-Morpholin-4-ylquinazolin-4-yl)-pyridin-3-yl]thiazol-2-ylmethanol] came in with a half-maximal inhibitory concentration (IC50) in assay [1] (Table 5) of 7 to 30 nM.
On to `CC(O)(c1cc(-c2ncnc3cc(N4CCOCC4)ccc23)ccn1)c1nccs1` (stereo not shown) [Example 153, 1-[4-(7-Morpholin-4-ylquinazolin-4-yl)-pyridin-2-yl]-1-thiazol-2-ylethanol], for which the IC50 in assay [1] (Table 5) was more than 30 nM.
Turning to `COc1nccnc1C(O)c1ccc(F)c(-c2ncnc3cc(N4CCOCC4)cc(F)c23)c1` (single isomer, unassigned) [Example 253, [4-Fluoro-3-(5-fluoro-7-morpholin-4-yl-quinazolin-4-yl)-phenyl]-(3-methoxy-pyrazin-2-yl)-methanol], the figures for the concentration for half-maximal inhibition (IC50) in assay [1] (biochemical DNA-PK assay) and in assay [2] (setting [3]) were 7 to 30 nM and 5000 to 10000 nM, respectively.
On to `Cc1ccc(C(C)(O)c2nccs2)cc1-c1ncnc2cc(N3CCOCC3)ccc12` (stereo not shown) [Example 155, 1-[4-methyl-3-(7-morpholin-4-yl-quinazolin-4-yl)-phenyl)-1-thiazol-2-ylethanol], for which the 50% inhibitory concentration (IC50) in assay [1] (Table 5) is more than 30 nM.
On to `OC(c1cccc(-c2ncnc3cc(N4CCOCC4)ccc23)c1)(c1nccs1)C(F)(F)F` (stereo not shown) [Example 172, 2,2,2-Trifluoro-1-[3-(7-morpholin-4-yl-quinazolin-4-yl)-phenyl]-1-thiazol-2-ylethanol], for which the IC50 in assay [1] (Table 5) lay within 7 to 30 nM; in assay [2] (Table 5, HCT116 cells), 10000 to 30000 nM.
As to `CC(O)(c1cc(-c2ncnc3cc(N4CCOCC4)ccc23)cs1)c1nccs1` (stereo not shown) [Example 156, 1-[4-(7-Morpholin-4-ylquinazolin-4-yl)-thiophen-2-yl]-1-thiazol-2-ylethanol], the half-maximal inhibitory concentration (IC50) in assay [1] (Table 5) was more than 30 nM.
Take `OC(c1cc(-c2ncnc3cc(N4CCOCC4)ccc23)c(F)cc1F)c1ncnc2ccoc12` (stereo not shown) [Example 446, [2,4-Difluoro-5-(7-morpholin-4-yl-quinazolin-4-yl)-phenyl]furo[3,2-d}-pyrimidin-4-yl-methanol]: the IC50 in assay [1] (biochemical DNA-PK assay) is less than 3 nM; in assay [2] (setting [3]), 500 to 5000 nM.
Compound `COC(c1ccc(F)c(-c2ncnc3cc(N4CCOCC4)ccc23)c1)c1nccs1` (stereo not shown) [Example 176, 4-[2-Fluoro-5-(-methoxy-thiazol-2-ylmethyl)phenyl]-7-morpholin-4-yl-quinazoline] yielded a concentration for half-maximal inhibition (IC50) in assay [1] (Table 5) of 7 to 30 nM.
For `COc1ccc(C(O)c2cc(-c3ncnc4cc(N5CCOCC5)sc34)c(F)cc2Cl)nn1` (single isomer, unassigned) [Example 127, [2-Chloro-4-fluoro-5-(6-morpholin-4-ylthieno[3,2-d}-pyrimidin-4-yl)-phenyl]-(6-methoxy-pyridazin-3-yl)-methanol], the half-inhibitory concentration (IC50) in assay [1] (enzymatic, 5 μM ATP) is 3 to 7 nM; in assay [2] (setting [4]) it was 5000 to 10000 nM.
Compound `OC(c1cncc(-c2ncnc3cc(N4CCOCC4)ccc23)c1)c1nccs1` (stereo not shown) [Example 183, [5-(7-Morpholin-4-ylquinazolin-4-yl)-pyndin-3-yl]thiazol-2-ylmethanol] gave a half-maximal inhibitory concentration (IC50) in assay [1] (Table 5) of 7 to 30 nM.
Turning to `OC(c1cc(F)cc(-c2ncnc3cc(N4CCOCC4)ccc23)c1)c1nccs1` (stereo not shown) [Example 169, [3-Fluoro-5-(7-morpholin-4-yl-quinazolin-4-yl)-phenyl]thiazol-2-yl-methanol], the IC50 lay within 7 to 30 nM in assay [1] (Table 5) and 10000 to 30000 nM in assay [2] (Table 5, HCT116 cells).
`CC(O)(c1cncc(-c2ncnc3cc(N4CCOCC4)ccc23)c1)c1nccs1` (stereo not shown) [Example 151, 1-[5-(7-Morpholin-4-ylquinazolin-4-yl)-pyridin-3-yl]-1-thiazol-2-ylethanol] gave a half-maximal inhibitory concentration (IC50) in assay [1] (Table 5) of more than 30 nM.
Consider `Cn1cnc2ncnc(C(O)c3cc(-c4ncnc5cc(N6CCOCC6)ccc45)c(F)cc3F)c21` (stereo not shown) [Example 431, [2,4-Difluoro-5-(7-morpholin-4-yl-quinazolin-4-yl)-phenyl]-(7-methyl-7H-purin-6-yl)-methanol], for which the values for the IC50 in assay [1] (biochemical DNA-PK assay) and in assay [2] (setting [3]) were 7 to 30 nM and 500 to 5000 nM, respectively.
`OC(c1cccnn1)c1cc(-c2ncnc3cc(N4CCOCC4)ccc23)c(F)cc1Cl` (single isomer, unassigned) [Example 30, [2-Chloro-4-fluoro-5-(7-morpholin-4-yl-quinazolin-4-yl)phenyl]-pyridazin-3-ylmethanol]: the IC50 is less than 3 nM in assay [1] (enzymatic, 5 μM ATP) and less than 500 nM in assay [2] (setting [4]).
Turning to `OC(c1nccs1)c1cc(-c2ncnc3cc(N4CCOCC4)ccc23)ccc1F` (stereo not shown) [Example 170, [2-Fluoro-5-(7-morpholin-4-yl-quinazolin-4-yl)-phenyl]thiazol-2-yl-methanol], the IC50 in assay [1] (Table 5) fell in the range of 7 to 30 nM; in assay [2] (Table 5, HCT116 cells) it was 5000 to 10000 nM.
In the case of `OC(c1ccc(F)c(-c2ncnc3cc(N4CCOCC4)ccc23)c1)c1nccs1` (stereo not shown) [Example 212, [4-Fluoro-3-(7-morpholin-4-yl-quinazolin-4-yl)-phenyl]thiazol-2-ylmethanol], the IC50 in assay [1] (enzymatic, 5 μM ATP) is less than 3 nM; in assay [2] (setting [4]), 10000 to 30000 nM.
In turn, `CC(O)(c1nccs1)c1cccc(-c2ncnc3cc(N4CCOCC4)ccc23)c1F` (stereo not shown) [Example 162, 1-[2-Fluoro-3-(7-morpholin-4-yl-quinazolin-4-yl)-phenyl]-1-thiazol-2-ylethanol] returned a half-maximal inhibitory concentration (IC50) in assay [1] (Table 5) of more than 30 nM.

For orientation: IC50 means the concentration that gives 50% inhibition.
